Patent publication US6706663B2, “Herbicidal 3-heterocyclic substituted benzisothiazole and benzisoxazole compounds” (Wyeth, priority 2000, dated 2004)

Tests used:
[1] = test system: CASOB (Cassia obtusifolia); test: Preemergence herbicidal evaluation; type: in vivo, L.; conditions: preemergence, rated 4-5 weeks after treatment
Procedure, shortened: (§1)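 Visual 0-9 rating versus untreated control, taken four to five weeks post-treatment, scoring stand, vigor, malformation, size, chlorosis and overall appearance. Compound applied as aqueous acetone spray to freshly seeded soil cups, then kept under standard greenhouse care.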

[2] = test system: CHEAL (Chenopodium album); test: Preemergence herbicidal evaluation; type: in vivo, L.; conditions: preemergence, rated 4-5 weeks after treatment
Procedure, shortened: as §1

[3] = test system: AMBEL (Ambrosia artemisifolia); test: Preemergence herbicidal evaluation; type: in vivo, L.; conditions: preemergence, rated 4-5 weeks after treatment
Procedure, shortened: as §1

ORYSAT (Rice, Tebonnet) [4] = test: Preemergence herbicidal evaluation; type: in vivo, Oryza sativa, (L.) Tebonnet; conditions: preemergence, rated 4-5 weeks after treatment
[5] = test system: ABUTH (Abutilon theophrasti); test: Postemergence herbicidal evaluation; type: in vivo, Medic.
Procedure, shortened: (§2)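 Visual 0–9 injury scores versus control plants, covering stand, vigour, malformation, size, chlorosis and general appearance, taken four to five weeks post-spray and averaged over replicate tests. Plants were sprayed at roughly two weeks old and held on greenhouse benches.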

[6] = test system: CASOB (Cassia obtusifolia); test: Postemergence herbicidal evaluation; type: in vivo, L.
Procedure, shortened: as §2

[7] = test system: CHEAL (Chenopodium album); test: Postemergence herbicidal evaluation; type: in vivo, L.
Procedure, shortened: as §2

[8] = test system: AMBEL (Ambrosia artemisifolia); test: Postemergence herbicidal evaluation; type: in vivo, L.
Procedure, shortened: as §2

[9] = test system: CYPSE (Cyperus serotinus); test: Flooded paddy, preemergence weed control; type: in vivo, Rottb.; conditions: rated 3-4 weeks after treatment, 0-9 rating scale
Procedure, shortened: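 Herbicidal effect was scored visually on a 0–9 scale against an untreated control 3–4 weeks after treatment. Compounds were applied preemergence as 50/50 v/v aqueous/acetone mixtures into flood water (1.5–3 cm deep over silt loam), at roughly 0.0080 to 0.1250 kg/ha active ingredient.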

[10] = test system: TRZAWR (Wheat, Winter, cv Riband); test: Preemergence herbicidal evaluation; type: in vivo, Triticum aestivum; conditions: preemergence, rated 4-5 weeks after treatment
Procedure, shortened: as §1

GALAP (Galium aparine) [11] = test: Preemergence herbicidal evaluation; type: in vivo; conditions: preemergence, rated 4-5 weeks after treatment
Procedure, shortened: as §1

GALAP (Galium aparine) [12] = test: Postemergence herbicidal evaluation; type: in vivo
Procedure, shortened: as §2

ORYSAT (Rice, Tebonnet) [13] = test: Postemergence herbicidal evaluation; type: in vivo, Oryza sativa, (L.) Tebonnet
Procedure, shortened: as §2

ZEAMX (Corn, Field) = test: Postemergence herbicidal evaluation; type: in vivo, Zea mays, L.
Procedure, shortened: as §2

[14] = test system: ABUTH (Abutilon theophrasti); test: Preemergence herbicidal evaluation; type: in vivo, Medic.; conditions: preemergence, rated 4-5 weeks after treatment
[15] = test system: IPOHE (Ipomoea hederacea); test: Preemergence herbicidal evaluation; type: in vivo, (L.) Jacq.; conditions: preemergence, rated 4-5 weeks after treatment
ORYSAT (Rice, Tebonnet) [16] = test: Flooded paddy, post-transplant rice tolerance; type: in vivo, Oryza sativa, (L.) Tebonnet; conditions: flooded paddy, post-transplant rice, rated 3-4 weeks after treatment, 0-9 rating scale
Procedure, shortened: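 Seedlings aged ten days are transplanted in pairs into undrained pots of silt loam, which are then flooded to a depth of 1.5 to 3 cm. After herbicide application the pots are kept in a greenhouse with the flood maintained. Plants are rated 0-9 by visual comparison with controls.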

[17] = test system: GLXMAW (Soybean, Williams); test: Postemergence herbicidal evaluation; type: in vivo, Glycine max, (L.) Merr. cv Williams
Procedure, shortened: as §2

[18] = test system: ECHCG (Echinochloa crus-galli); test: Postemergence herbicidal evaluation; type: in vivo, (L.) Beau
Procedure, shortened: as §2

Cc1ccc(-c2nsc3ccc(N4C(=O)C5=C(CCCC5)C4=O)cc23)s1 [Compound 20, N-[3-(5-methyl-2-thienyl)-1,2-benzisothiazol-5-yl]-1-cyclohexene-1,2-dicarboximide]
CASOB preemergence herbicidal rating ([1]; Rate 0.0620 kg/ha): 0.0
CASOB preemergence herbicidal rating ([1]; Rate 0.1250 kg/ha): 0.0
CASOB preemergence herbicidal rating ([1]; Rate 0.2500 kg/ha): 2.0
CHEAL preemergence herbicidal rating ([2]; Rate 0.0620 kg/ha): 0.0
CHEAL preemergence herbicidal rating ([2]; Rate 0.1250 kg/ha): 2.0
CHEAL preemergence herbicidal rating ([2]; Rate 0.2500 kg/ha): 3.0
AMBEL preemergence herbicidal rating ([3]; Rate 0.0620 kg/ha): 0.0
AMBEL preemergence herbicidal rating ([3]; Rate 0.1250 kg/ha): 1.0
AMBEL preemergence herbicidal rating ([3]; Rate 0.2500 kg/ha): 2.0
ORYSAT preemergence herbicidal rating (ORYSAT (Rice, Tebonnet) [4]; Rate 0.0620 kg/ha): 0.0
ORYSAT preemergence herbicidal rating (ORYSAT (Rice, Tebonnet) [4]; Rate 0.1250 kg/ha): 0.0
ORYSAT preemergence herbicidal rating (ORYSAT (Rice, Tebonnet) [4]; Rate 0.2500 kg/ha): 0.0
Postemergence herbicidal rating, ABUTH ([5]; rate 0.0320 kg/ha): 7.0
Postemergence herbicidal rating, ABUTH ([5]; rate 0.0620 kg/ha): 9.0
Postemergence herbicidal rating, ABUTH ([5]; rate 0.1250 kg/ha): 9.0
Postemergence herbicidal rating, CASOB ([6]; rate 0.0320 kg/ha): 1.0
Postemergence herbicidal rating, CASOB ([6]; rate 0.0620 kg/ha): 1.0
Postemergence herbicidal rating, CASOB ([6]; rate 0.1250 kg/ha): 1.0
Postemergence herbicidal rating, CHEAL ([7]; rate 0.0320 kg/ha): 3.0
Postemergence herbicidal rating, CHEAL ([7]; rate 0.0620 kg/ha): 5.0
Postemergence herbicidal rating, CHEAL ([7]; rate 0.1250 kg/ha): 5.0
Postemergence herbicidal rating, AMBEL ([8]; rate 0.0320 kg/ha): 6.0
Postemergence herbicidal rating, AMBEL ([8]; rate 0.0620 kg/ha): 6.0
Postemergence herbicidal rating, AMBEL ([8]; rate 0.1250 kg/ha): 9.0
herbicidal rating, CYPSE ([9]; rate 0.0320 kg/ha): 4.0
herbicidal rating, CYPSE ([9]; rate 0.1250 kg/ha): 7.0
TRZAWR preemergence herbicidal rating ([10]; Rate 0.0620 kg/ha): 0.0
TRZAWR preemergence herbicidal rating ([10]; Rate 0.1250 kg/ha): 0.0
TRZAWR preemergence herbicidal rating ([10]; Rate 0.2500 kg/ha): 0.0
GALAP preemergence herbicidal rating (GALAP (Galium aparine) [11]; Rate 0.0620 kg/ha): 0.0
GALAP preemergence herbicidal rating (GALAP (Galium aparine) [11]; Rate 0.1250 kg/ha): 0.0
GALAP preemergence herbicidal rating (GALAP (Galium aparine) [11]; Rate 0.2500 kg/ha): 3.0
Postemergence herbicidal rating, GALAP (GALAP (Galium aparine) [12]; rate 0.0320 kg/ha): 1.0
Postemergence herbicidal rating, GALAP (GALAP (Galium aparine) [12]; rate 0.0620 kg/ha): 1.0
Postemergence herbicidal rating, GALAP (GALAP (Galium aparine) [12]; rate 0.1250 kg/ha): 1.0
Postemergence herbicidal rating, ORYSAT (ORYSAT (Rice, Tebonnet) [13]; rate 0.0320 kg/ha): 2.5
Postemergence herbicidal rating, ORYSAT (ORYSAT (Rice, Tebonnet) [13]; rate 0.0620 kg/ha): 3.0
Postemergence herbicidal rating, ORYSAT (ORYSAT (Rice, Tebonnet) [13]; rate 0.1250 kg/ha): 4.5
Postemergence herbicidal rating, ZEAMX (ZEAMX (Corn, Field); rate 0.0320 kg/ha): 5.0
Postemergence herbicidal rating, ZEAMX (ZEAMX (Corn, Field); rate 0.0620 kg/ha): 5.0
Postemergence herbicidal rating, ZEAMX (ZEAMX (Corn, Field); rate 0.1250 kg/ha): 5.5
ABUTH preemergence herbicidal rating ([14]; Rate 0.0620 kg/ha): 1.0
ABUTH preemergence herbicidal rating ([14]; Rate 0.1250 kg/ha): 2.0
ABUTH preemergence herbicidal rating ([14]; Rate 0.2500 kg/ha): 4.0
IPOHE preemergence herbicidal rating ([15]; Rate 0.0620 kg/ha): 0.0
IPOHE preemergence herbicidal rating ([15]; Rate 0.1250 kg/ha): 0.0
IPOHE preemergence herbicidal rating ([15]; Rate 0.2500 kg/ha): 0.0
herbicidal rating, ORYSAT (rice tolerance) (ORYSAT (Rice, Tebonnet) [16]; rate 0.0320 kg/ha): 2.0
herbicidal rating, ORYSAT (rice tolerance) (ORYSAT (Rice, Tebonnet) [16]; rate 0.1250 kg/ha): 2.0
Postemergence herbicidal rating, GLXMAW ([17]; rate 0.0320 kg/ha): 5.5
Postemergence herbicidal rating, GLXMAW ([17]; rate 0.0620 kg/ha): 5.5
Postemergence herbicidal rating, GLXMAW ([17]; rate 0.1250 kg/ha): 5.5
Postemergence herbicidal rating, ECHCG ([18]; rate 0.0320 kg/ha): 1.0
Postemergence herbicidal rating, ECHCG ([18]; rate 0.0620 kg/ha): 1.0
Postemergence herbicidal rating, ECHCG ([18]; rate 0.1250 kg/ha): 1.0

COC(=O)C(C)Oc1ccsc1-c1nsc2ccc(-n3c(=O)cc(C(F)(F)F)n(C)c3=O)cc12 (centres unmarked) [Compound 23, methyl 2-[(2-[5-[3,6-dihydro-3-methyl-2,6-dioxo-4-(trifluoromethyl)-1(2H)-pyrimidinyl]-1,2-benzisothiazol-3-yl]-3-thienyl]oxy]propionate]
CASOB preemergence herbicidal rating ([1]; Rate 0.0620 kg/ha): 0.0
CASOB preemergence herbicidal rating ([1]; Rate 0.1250 kg/ha): 1.0
CASOB preemergence herbicidal rating ([1]; Rate 0.2500 kg/ha): 6.0
CHEAL preemergence herbicidal rating ([2]; Rate 0.0620 kg/ha): 9.0
CHEAL preemergence herbicidal rating ([2]; Rate 0.1250 kg/ha): 0.0
CHEAL preemergence herbicidal rating ([2]; Rate 0.2500 kg/ha): 4.0
AMBEL preemergence herbicidal rating ([3]; Rate 0.0620 kg/ha): 0.0
AMBEL preemergence herbicidal rating ([3]; Rate 0.1250 kg/ha): 9.0
AMBEL preemergence herbicidal rating ([3]; Rate 0.2500 kg/ha): 9.0
ORYSAT preemergence herbicidal rating (ORYSAT (Rice, Tebonnet) [4]; Rate 0.0620 kg/ha): 0.0
ORYSAT preemergence herbicidal rating (ORYSAT (Rice, Tebonnet) [4]; Rate 0.1250 kg/ha): 0.0
ORYSAT preemergence herbicidal rating (ORYSAT (Rice, Tebonnet) [4]; Rate 0.2500 kg/ha): 0.0
Postemergence herbicidal rating, ABUTH ([5]; rate 0.0320 kg/ha): 9.0
Postemergence herbicidal rating, ABUTH ([5]; rate 0.0620 kg/ha): 9.0
Postemergence herbicidal rating, ABUTH ([5]; rate 0.1250 kg/ha): 9.0
Postemergence herbicidal rating, CASOB ([6]; rate 0.0320 kg/ha): 0.0
Postemergence herbicidal rating, CASOB ([6]; rate 0.0620 kg/ha): 0.0
Postemergence herbicidal rating, CASOB ([6]; rate 0.1250 kg/ha): 2.0
Postemergence herbicidal rating, CHEAL ([7]; rate 0.0320 kg/ha): 2.0
Postemergence herbicidal rating, CHEAL ([7]; rate 0.0620 kg/ha): 4.0
Postemergence herbicidal rating, CHEAL ([7]; rate 0.1250 kg/ha): 6.0
Postemergence herbicidal rating, AMBEL ([8]; rate 0.0320 kg/ha): 2.0
Postemergence herbicidal rating, AMBEL ([8]; rate 0.0620 kg/ha): 6.0
Postemergence herbicidal rating, AMBEL ([8]; rate 0.1250 kg/ha): 9.0
herbicidal rating, CYPSE ([9]; rate 0.0320 kg/ha): 0.0
herbicidal rating, CYPSE ([9]; rate 0.1250 kg/ha): 9.0
TRZAWR preemergence herbicidal rating ([10]; Rate 0.0620 kg/ha): 0.0
TRZAWR preemergence herbicidal rating ([10]; Rate 0.1250 kg/ha): 0.0
TRZAWR preemergence herbicidal rating ([10]; Rate 0.2500 kg/ha): 0.0
GALAP preemergence herbicidal rating (GALAP (Galium aparine) [11]; Rate 0.0620 kg/ha): 0.0
GALAP preemergence herbicidal rating (GALAP (Galium aparine) [11]; Rate 0.1250 kg/ha): 0.0
GALAP preemergence herbicidal rating (GALAP (Galium aparine) [11]; Rate 0.2500 kg/ha): 1.0
Postemergence herbicidal rating, GALAP (GALAP (Galium aparine) [12]; rate 0.0320 kg/ha): 1.0
Postemergence herbicidal rating, GALAP (GALAP (Galium aparine) [12]; rate 0.0620 kg/ha): 2.0
Postemergence herbicidal rating, GALAP (GALAP (Galium aparine) [12]; rate 0.1250 kg/ha): 2.0
Postemergence herbicidal rating, ORYSAT (ORYSAT (Rice, Tebonnet) [13]; rate 0.0320 kg/ha): 2.5
Postemergence herbicidal rating, ORYSAT (ORYSAT (Rice, Tebonnet) [13]; rate 0.0620 kg/ha): 3.5
Postemergence herbicidal rating, ORYSAT (ORYSAT (Rice, Tebonnet) [13]; rate 0.1250 kg/ha): 5.0
Postemergence herbicidal rating, ZEAMX (ZEAMX (Corn, Field); rate 0.0320 kg/ha): 5.0
Postemergence herbicidal rating, ZEAMX (ZEAMX (Corn, Field); rate 0.0620 kg/ha): 6.5
Postemergence herbicidal rating, ZEAMX (ZEAMX (Corn, Field); rate 0.1250 kg/ha): 7.0
ABUTH preemergence herbicidal rating ([14]; Rate 0.0620 kg/ha): 0.0
ABUTH preemergence herbicidal rating ([14]; Rate 0.1250 kg/ha): 0.0
ABUTH preemergence herbicidal rating ([14]; Rate 0.2500 kg/ha): 1.0
IPOHE preemergence herbicidal rating ([15]; Rate 0.0620 kg/ha): 0.0
IPOHE preemergence herbicidal rating ([15]; Rate 0.1250 kg/ha): 0.0
IPOHE preemergence herbicidal rating ([15]; Rate 0.2500 kg/ha): 0.0
herbicidal rating, ORYSAT (rice tolerance) (ORYSAT (Rice, Tebonnet) [16]; rate 0.0320 kg/ha): 0.0
herbicidal rating, ORYSAT (rice tolerance) (ORYSAT (Rice, Tebonnet) [16]; rate 0.1250 kg/ha): 3.0
Postemergence herbicidal rating, GLXMAW ([17]; rate 0.0320 kg/ha): 4.0
Postemergence herbicidal rating, GLXMAW ([17]; rate 0.0620 kg/ha): 5.0
Postemergence herbicidal rating, GLXMAW ([17]; rate 0.1250 kg/ha): 5.0
Postemergence herbicidal rating, ECHCG ([18]; rate 0.0320 kg/ha): 0.0
Postemergence herbicidal rating, ECHCG ([18]; rate 0.0620 kg/ha): 1.0
Postemergence herbicidal rating, ECHCG ([18]; rate 0.1250 kg/ha): 5.0
